Assay results as given in patent publication US3985758A, “1,4-Dihydropyridine derivatives” (Yamanouchi Pharmaceutical Co., Ltd., priority 1973, dated 1976).
Converted amounts (≈) assume the structure as drawn. Counter-ions that a name gives are not always drawn. Like-named read-outs stand apart in the source and are kept apart here.

Assays:
guinea-pig ileum = experiment: Spasmolytic activity in isolated guinea-pig ileum (Magnus apparatus); details: Cavia porcellus, ±S.E.
Description: Methods: Isolated guinea-pig ileum was suspended in Tyrodes solution by use of Magnus apparatus and the movements of the muscle were recorded in a kymograph by an isotonic lever.

in vivo [1] = details: dog, iv
in vivo [2] = details: mouse, in vivo, iv
Description: (§1) LD50 was determined by using mice.
(§2) 2. Acute toxicity in mice
(§3) Male ICR weighing 25 to 32 g were used. The test compounds were injected into tail vein and LD 50 values were determined.

mice = experiment: in vivo; details: i.v.; mice
Description: as §1, §2, §3

femoral artery = experiment: Direct vasodilating effect on femoral artery, constant volume perfusion; format: in vivo, mongrel dog; details: intra-arterial; ±SE; maximum response to papaverine 3000 μg i.a. = 100%
Excerpt: For the analysis of the selective effect on vasculature by the drugs, direct effect on cerebral (vertebral artery) and peripheral (femoral artery) vascular bed were studied by the method of the constant volume perfusion.
(§4) Heparin (1000 μ/Kg, i.v.) was used as an anticoagulant. The methods for perfusion of each artery were as following: 1) For the vertebral artery, the arterial blood led from the left common carotid artery was collected by the tygon tubing and perfused by the Sigma-motor pump (Mippleport N.Y. T-8) into the right vertebral artery. 2) For the femoral artery, the arterial blood led from the proximal femoral artery was perfused by the Sigma-motor pump into the distal femoral artery. […] All drugs were given into a rubber tube connected close to the each arterial cannula by a microinjector (Jintan Terumo, NSN-100).

vertebral artery = experiment: Direct vasodilating effect on vertebral artery, constant volume perfusion; format: in vivo, mongrel dog; details: intra-arterial; for Vasodilation ED50, vertebral artery: ±SE, maximum response to papaverine 3000 μg i.a. = 100%
Excerpt: as §4

[3] = test system: vertebral and femoral blood flow; experiment: Vertebral and femoral blood flow in anesthetized dogs; format: in vivo, mongrel dog; details: 0.01 mg/kg i.v. (0.01 or 0.03 mg/kg); for Blood pressure change (Δ mmHg): femoral artery; for Separation ratio (percent increase of vertebral blood flow / that of femoral blood flow): significance vs SKF 24260
Description: Vertebral and femoral blood flow in anesthetized dogs.
Mongrel dogs of both sexes weighing from 12 to 27 kg were anesthetized with sodium pentobarbitol (30 mg/kg i.v.). In all experiments, trachea was cannulated and the animals were artificially ventilated with room air. Blood pressure in cannulated femoral artery was measured by means of a pressure transducer (Nihon Kohden, MPU 0.5). Vertebral and femoral blood flow were measured by a noncannulating electromagnetic flowmeter (Nihon Kohden, MF-25) positioned around the vessels. Recordings were made on an ink-writing polygraph (Nihon Kohden, RM-150 or RM-85). The test compounds were injected at a dose of 0.01 mg/kg into femoral vein.

[4] = Solubility in water at 25° C; format: physicochemical
[5] = cited from earlier work
[6] = cited from earlier work; remark: listed apart in the source

Structure (SMILES) | Heart rate (Δbeats/min.±SE) (anesthetized dogs; 0.001 mg/Kg i.v.) | Mean blood pressure (ΔmmHg±SE) (anesthetized dogs; 0.001 mg/Kg i.v.) | Vertebral blood flow (Δ%±SE) (anesthetized dogs; 0.001 mg/Kg i.v.) | Heart rate (Δbeats/min.±SE) (anesthetized dogs; 0.003 mg/Kg i.v.) | Mean blood pressure (ΔmmHg±SE) (anesthetized dogs; 0.003 mg/Kg i.v.) | Vertebral blood flow (Δ%±SE) (anesthetized dogs; 0.003 mg/Kg i.v.) | Heart rate (Δbeats/min.±SE) (anesthetized dogs; 0.01 mg/Kg i.v.) | Mean blood pressure (ΔmmHg±SE) (anesthetized dogs; 0.01 mg/Kg i.v.) | Vertebral blood flow (Δ%±SE) (anesthetized dogs; 0.01 mg/Kg i.v.) | LD50 (in vivo [2]) [mg/kg] | Vasodilation ED50, femoral artery (femoral artery) [µg] | Vasodilation ED50, vertebral artery (vertebral artery) [µg] | Femoral blood flow (FBF %) [3] [%] | Vertebral blood flow (VBF Δ %) [3] | Blood pressure change (Δ mmHg) [3] | Separation ratio (percent increase of vertebral blood flow / that of femoral blood flow) [3] | further results
COC(=O)C1=C(C)NC(C)=C(C(=O)OCCN(C)Cc2ccccc2)C1c1cccc([N+](=O)[O-])c1 (stereo not drawn) [Example 2, 2,6-dimethyl-4-(3'-nitrophenyl)-1,4-dihydropyridine-3,5-dicarboxylic acid 3-β-(N-benzyl-N-methylamino)ethyl ester 5-methyl ester hydrochloride] | 12±2.2 Δbeats/min. | -7±1.5 ΔmmHg | 61±9.5 Δ% | 18±2.0 Δbeats/min. | -14±2.2 ΔmmHg | 132±13.8 Δ% | 25±5.3 Δbeats/min. | -29±3.6 ΔmmHg | 200±27.3 Δ% | 20.7 | 0.86 ± 0.11 | 0.66 ± 0.20 | 51 ± 5.8 | 200 ± 27.3 Δ % | -29 ± 3.6 Δ mmHg | 4.19 ± 0.69 | IC50 (guinea-pig ileum; read-out: Spasmolytic activity, 50% inhibition of contractile response, Acetylchloline 10^-7 g/ml): 5.2 ng/mL; IC50 (guinea-pig ileum; read-out: Spasmolytic activity, 50% inhibition of contractile response, BaCl2 2×10^-4 g/ml): 1.9 ng/mL; IC50 (guinea-pig ileum; read-out: Spasmolytic activity, 50% inhibition of contractile response, Histamine 10^-7 g/ml): 1.8 ng/mL; LD50 (in vivo [1]): 6.1 mg/kg; Heart rate (Δbeats/min.±SE) (anesthetized dogs; 0.0003 mg/Kg i.v.): 4±1.3 Δbeats/min.; Mean blood pressure (ΔmmHg±SE) (anesthetized dogs; 0.0003 mg/Kg i.v.): -1±0.6 ΔmmHg; Vertebral blood flow (Δ%±SE) (anesthetized dogs; 0.0003 mg/Kg i.v.): 27±4.4 Δ%; LD50 (mice): 20.7 mg/kg; Selectivity ratio (ED50 in femoral artery/ED50 in vertebral artery) (vertebral artery; anesthetized dogs): 1.30; pH (of solubility determination) ([4]; compounds of the present invention, 25° C): 3.92; solubility ([4]; compounds of the present invention, 25° C, at the given pH, read-out: Solubility): 4900 µg/mL
COC(=O)C1=C(C)NC(C)=C(C(=O)OC)C1c1ccccc1[N+](=O)[O-] [Nifedipine, 4-(2'-nitrophenyl)-2,6-dimethyl-1,4-dihydropyridine-3,5-dicarboxylic acid dimethyl ester] | 10±3.5 Δbeats/min. | -10±1.6 ΔmmHg | 47±13.5 Δ% | 18±3.2 Δbeats/min. | -24±5.9 ΔmmHg | 104±25.8 Δ% | 17±4.0 Δbeats/min. | -39±3.2 ΔmmHg | 135±28.8 Δ% |  | 0.37 ± 0.11 | 0.74 ± 0.15 | 109 ± 34.1 | 135 ± 28.8 Δ % | -39 ± 3.2 Δ mmHg |  | Coronary vasodilator activity and spasmolytic activity ([5]; Naturwissenschaften 58, (11)578(1971)): much excellent coronary vasodilator activity and spasmolytic activity
CCOC(=O)C1=C(C)NC(C)=C(C(=O)OCC)C1c1ccccc1C(F)(F)F [SKF 24260, 3,5-dicarbethoxy-1,4-dihydro-2,6-dimethyl-4-(2-trifluoromethylphenyl) pyridine, reference compound] |  |  |  |  |  |  |  |  |  | 0.8 |  |  | 165 ± 40 | 144 ± 17.7 Δ % | -44 ± 4.8 Δ mmHg | 0.93 ± 0.11 | Water-solubility (in words) [6]: very poorly water-soluble; Hypotensive activity ([5]; U.S. Pat. No. 3,511,837): shows hypotensive activity; pH (of solubility determination) ([4]; known compounds, 25° C): 5.40; solubility ([4]; known compounds, 25° C, at the given pH, read-out: Solubility): 10 µg/mL (≈ 25.2 µM); solubility ([4]; known compounds, pH 4.00, 25° C, read-out: Solubility at pH 4.00): 10 µg/mL (≈ 25.2 µM)
